The values below come from patent US20060241114A1, “Derivatives of azasugars as anticancer agents” (priority 2003, published 2006).

The test system of test [1] is MCF7 (breast adenocarcinoma). The experiment in a line: In vitro growth inhibition screen (sulphorhodamine B), MCF7. It is filed as cell-based, human. The following applies: MCF7 cells, incubated for 48 hours, sulphorhodamine B dye; read-out: GI50 (concentration which inhibits the cell growth by 50%), MCF7 Breast adenocarcinoma. The procedure: (§1) Each agent was tested over a broad concentration range (ten-fold dilutions starting from ≧100 μM to 10 nM) against 6 human cancer cell lines which was comprised of different tumor types. These are DU145 (prostate carcinoma), HT29 (colorectal adenocarcinoma), LOX (melanoma), MCF7 (breast adenocarcinoma), MCF7ADR (adriamycin resistant breast adenocarcinoma), and U251 (human glioblastoma). A standard compound doxorubicin was tested in each assay as a positive control. The cells were maintained in growing condition in RPMI 1640 medium containing 10% fetal calf serum and incubated at 37° C. under 5% CO2 atmosphere. All cell lines were inoculated onto a series of standard 96-well microtitre plate on day zero, followed by twenty four-hour incubation in the absence of test compound. The inoculation densities in the screen were as per Monk et al., (1991) J. Natl. Cancer Inst., 83, 757-766. All NCEs were dissolved in DMSO and diluted further in culture medium. An aliquot of each dilution was added to the growing cells in 96 well plates and incubated for 48 hours. After incubation, the assay was terminated by adding 50 μL of trichloroacetic acid (TCA) and incubating at 4° C. for 30 min. The precipitated cells were washed and stained with sulphorhodamine B dye for 30 min and the excess dye was washed off with acetic acid. Adsorbed dye was solubilised in Tris base (alkaline pH) and quantitated by measuring the OD at […] in ELISA READER. GI50 (concentration which inhibits the cell growth by 50%) was calculated according to Boyd and Paull, (1995) Drug Dev. Res., 34, 91-109.
For orientation: The SRB assay estimates cell density from bound dye.

For a further test, the system named is LOX (melanoma). The experiment in a line: In vitro growth inhibition screen (sulphorhodamine B), LOX. It is filed as cell-based, human. The following applies: LOX cells, incubated for 48 hours, sulphorhodamine B dye; read-out: GI50 (concentration which inhibits the cell growth by 50%), LOX Melanoma. As to the method:
as §1

In test [2] the test system is DU145 (prostate carcinoma). The experiment in a line: In vitro growth inhibition screen (sulphorhodamine B), DU145. The following applies: DU145 cells, incubated for 48 hours, sulphorhodamine B dye; read-out: GI50 (concentration which inhibits the cell growth by 50%), DU145 Prostate carcinoma. In kind it is cell-based, human. As to the method:
as §1

In test [3] the test system is MCF7ADR (adriamycin resistant breast adenocarcinoma). The experiment in a line: In vitro growth inhibition screen (sulphorhodamine B), MCF7ADR. As to conditions: MCF7ADR cells, incubated for 48 hours, sulphorhodamine B dye; read-out: GI50 (concentration which inhibits the cell growth by 50%), MCF7ADR Adriamycin Resistant Breast adenocarcinoma. In kind it is cell-based, human. The procedure: as §1

The test system of test [4] is HT29 (colorectal adenocarcinoma). The experiment in a line: In vitro growth inhibition screen (sulphorhodamine B), HT29. The following applies: HT29 cells, incubated for 48 hours, sulphorhodamine B dye; read-out: GI50 (concentration which inhibits the cell growth by 50%), HT29 Colorectal adenocarcinoma. In kind it is cell-based, human. As to the method: as §1
The test system of test [5] is U251 (human glioblastoma). The experiment in a line: In vitro growth inhibition screen (sulphorhodamine B), U251. In kind it is cell-based. As to conditions: U251 cells, incubated for 48 hours, sulphorhodamine B dye; read-out: GI50 (concentration which inhibits the cell growth by 50%), U251 Human glioblastoma astrocytoma. As to the method: as §1

With `C=CCN1C(=O)[C@H](OCc2ccccc2)[C@@H](OCc2ccccc2)[C@H](OCc2ccccc2)[C@H]1COS(=O)(=O)c1ccc(C)cc1` [Compound No. 1, N-Allyl-6-O-(p-toluenesulphonyl)-2,3,4-tri-O-benzyl-D-gluco-δ-lactam], the GI50 in test [1] is 378 µM; in the test on LOX (melanoma), over 624 µM; in test [2], 364 µM; in test [3], over 624 µM; in test [4], 203 µM; in test [5], over 624 µM.
As for `CCCN1C(=O)[C@H](OCc2ccccc2)[C@@H](OCc2ccccc2)[C@H](OCc2ccccc2)[C@H]1CNC(=O)C12CC3CC(CC(C3)C1)C2` [Compound No. 48, 2,3,4-Tri-O-benzyl-6-(adamantanecarboxamido}-N-propyl-D-gluco-δ-lactam], the GI50 stood at 18.8 µM in test [1]; 31.8 µM with LOX (melanoma); 104 µM in test [2]; 58.4 µM in test [3]; 67.9 µM in test [4]; 12.9 µM in test [5].
Consider `CCCN1C(=O)[C@H](O)[C@@H](O)[C@H](O)[C@H]1CNC(=O)Nc1ccccc1` [Compound No. 24, N-Propyl-6-N-{[phenyl]aminocarbonylamino}-D-gluco-δ-lactam], for which the GI50 in test [1] was determined as 157 µM; with LOX (melanoma), 169 µM; in test [2], 296 µM; in test [3], 262 µM; in test [4] it was 213 µM; in test [5] it was 231 µM.
As for “6-N-{2-[1,5-Dideoxy-1,5-imino-glucit-6-ol]acetyl}-N-propyl-D-gluco-δ-lactam [Compound No. 67]”, the GI50 in test [1] was found to be 107 µM; in the test on LOX (melanoma), 67.6 µM; in test [2] it was 81.6 µM; in test [3], 75.4 µM; in test [4] it was 106 µM; in test [5], 91.5 µM.
On to “N-Allyl-2,3,4-tri-O-benzyl-1,5-dideoxy-1,5-imino-D-glucitol [Compound No. 71]”, for which the GI50 was 5.4 µM in test [1]; 9.5 µM in the test with LOX (melanoma); 14.5 µM in test [2]; 9.2 µM in test [3]; 3.5 µM in test [4]; 8.3 µM in test [5].
`CCCN1C[C@H](O)[C@@H](O)[C@H](O)[C@H]1Cn1ccnn1` [Compound No. 73, 1,5-Dideoxy-1,5-imino-N-propyl-6-triazolyl glucitol]: the GI50 was found to be 320 µM in test [1]; 247 µM in the test on LOX (melanoma); 267 µM in test [2]; 291 µM in test [3]; 470 µM in test [4]; 506 µM in test [5].
As for `CCCN1C(=O)[C@H](OCc2ccccc2)[C@@H](OCc2ccccc2)[C@H](OCc2ccccc2)[C@H]1CNC(=O)Nc1cccc(C(C)=O)c1` [Compound No. 14, 2,3,4-Tri-O-benzyl-6-N-{[3-acetylphenyl]aminocarbonylamino}-N-propyl-D-gluco-δ-lactam], the GI50 in test [1] stood at 35.7 µM; in the test with LOX (melanoma), 7.6 µM; in test [2] it was 21 µM; in test [3], 6.7 µM; in test [4] it was 30.4 µM; in test [5], 15 µM.
In the case of `CCCN1C(=O)[C@H](OCc2ccccc2)[C@@H](OCc2ccccc2)[C@H](OCc2ccccc2)[C@H]1CNC(=O)Cn1cncn1` [Compound No. 53, 2,3,4-Tri-O-benzyl-N-propyl-6-{2-[triazolyl]-acetyl}-D-gluco-δ-lactam], the GI50 in test [1] turned out to be 6.6 µM; with LOX (melanoma) it was 8.3 µM; in test [2], 8.8 µM; in test [3], 10 µM; in test [4], 9.3 µM; in test [5], 12.9 µM.
Take `CCCN1C(=O)[C@H](O)[C@@H](O)[C@H](O)[C@H]1CNC(=O)Nc1ccc(F)cc1F` [Compound No. 49, 6-N-{[2,4Difluorophenyl]aminocarbonylamino}-N-propyl-D-gluco-δ-lactam]: the GI50 in test [1] turned out to be 177 µM; in the test on LOX (melanoma), 133 µM; in test [2], 352 µM; in test [3] it was 251 µM; in test [4], 131 µM; in test [5], 122 µM.
Consider `C=CCN1C(=O)C(OCc2ccccc2)C(OCc2ccccc2)C(OCc2ccccc2)C1CN1C(=O)CCCC1=O` [Compound No. 82, N-Allyl-2,3,4-tri-O-benzyl-6-(2,6-diketopiperidino)-D-gluco-δ-lactam], for which the GI50 stood at 9.9 µM in test [1]; 8.5 µM with LOX (melanoma); 24.8 µM in test [2]; 17.5 µM in test [3]; 23.5 µM in test [4]; 12.5 µM in test [5].
As to `CCCN1C(=O)[C@H](OCc2ccccc2)[C@@H](OCc2ccccc2)[C@H](OCc2ccccc2)[C@H]1CNC(=O)Nc1cccc(Cl)c1` [Compound No. 13, 2,3,4-Tri-O-benzyl-6-N-{[3-chlorophenyl]aminocarbonylamino}-N-propyl-D-gluco-δ-lactam], the GI50 in test [1] worked out at 6.4 µM; with LOX (melanoma), 3.1 µM; in test [2] it was 4.2 µM; in test [3] it was 4.6 µM; in test [4] it was 3.6 µM; in test [5], 6.4 µM.
As for “N-Propyl-6-[4-chlorophenyl-3(2H,4H)-1,2,4-triazol-3-onyl]-D-gluco-δ-lactam [Compound No. 88]”, the GI50 in test [1] worked out at 102 µM; with LOX (melanoma), 135 µM; in test [2], 144 µM; in test [3], 107 µM; in test [4], 111 µM; in test [5], 90.7 µM.
As to `CCCN1C(=O)[C@H](OCc2ccccc2)[C@@H](OCc2ccccc2)[C@H](OCc2ccccc2)[C@H]1CNC(=O)Nc1c(Cl)cc(Cl)cc1Cl` [Compound No. 17, 2,3,4-Tri-O-benzyl-6-N-{[2,4,6-trichlorophenyl]aminocarbonylamino}-N-propyl-D-gluco-δ-lactam], the GI50 is over 528 µM in test [1]; 170 µM with LOX (melanoma); 82.2 µM in test [2]; 348 µM in test [3]; 213 µM in test [4]; 206 µM in test [5].
Regarding `CCCN1C(=O)[C@H](O)[C@@H](O)[C@H](O)[C@H]1CNC(=O)Nc1ccc(C(F)(F)F)cc1` [Compound No. 31, 6-N-{[4-Trifluoromethylphenyl]aminocarbonylamino}-N-propyl-D-gluco-δ-lactam], the GI50 worked out at 139 µM in test [1]; 132 µM in the test on LOX (melanoma); 113 µM in test [2]; 131 µM in test [3]; 79.5 µM in test [4]; 82.2 µM in test [5].
For `CCCN1C(=O)[C@H](OCc2ccccc2)[C@@H](OCc2ccccc2)[C@H](OCc2ccccc2)[C@H]1COC(=O)CN1C(=O)CCCC1=O` [Compound No. 56, 2,3,4-Tri-O-benzyl-6-{2-[2,6-diketopiperidino]acetyl}-N-propyl-D-gluco-δ-lactam], the GI50 was 40.3 µM in test [1]; 12 µM in the test with LOX (melanoma); 10.7 µM in test [2]; 24.5 µM in test [3]; 22.8 µM in test [4]; 40.5 µM in test [5].
As to `CCCN1C(=O)[C@H](OCc2ccccc2)[C@@H](OCc2ccccc2)[C@H](OCc2ccccc2)[C@H]1CNC(=O)c1ccc(F)cc1F` [Compound No. 47, 2,3,4-Tri-O-benzyl-6-N-{[2,4-difluorophenyl]carboxamido}-N-propyl-D-gluco-δ-lactam], the GI50 in test [1] is 14.7 µM; in the test on LOX (melanoma) it was 51.4 µM; in test [2], 153 µM; in test [3], 68.2 µM; in test [4] it was 49.3 µM; in test [5], 155 µM.
As to `C=CCN1C[C@H](OCc2ccccc2)[C@@H](OCc2ccccc2)[C@H](OCc2ccccc2)[C@H]1CN1CCOCC1` [Compound No. 85, N-Allyl-2,3,4-tri-O-benzyl-1,5-dideoxy-1,5-imino-6-morpholino glucitol], the GI50 in test [1] came out at 7.2 µM; in the test with LOX (melanoma) it was 27.3 µM; in test [2], 43.5 µM; in test [3], 40.3 µM; in test [4] it was 11.3 µM; in test [5], 25.9 µM.
